Key:
Experiment in all cases: relative viability (nuclei count vs DMSO), 5 days (fraction); higher = more cells survive
Vemurafenib + Navitoclax = compound: CCCS(=O)(=O)Nc1ccc(F)c(C(=O)c2c[nH]c3ncc(-c4ccc(Cl)cc4)cc23)c1F [Vemurafenib] + CC1(C)CCC(c2ccc(Cl)cc2)=C(CN2CCN(c3ccc(C(=O)NS(=O)(=O)c4ccc(N[C@H](CCN5CCOCC5)CSc5ccccc5)c(S(=O)(=O)C(F)(F)F)c4)cc3)CC2)C1 [Navitoclax] (partner 0.5 µM)
Method in brief: (§1)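 Nuclei were stained with Hoechst during a one-step fixation (final 0.05% Triton X-100, 1% formaldehyde, 1 ug/ml Hoechst) carried out 5 days after dosing, then counted on 4× images. The cells, lung cancer lines in 1536-well plates, had been dosed by pin tool the day after seeding with one drug alone or a fixed anchor-drug dose plus five library-drug doses (not always all listed) in √10 steps. Relative viability is the nuclei count in treated wells divided by that in vehicle wells, and each value is the median of duplicate plates.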

Vemurafenib + Alpelisib = compound: CCCS(=O)(=O)Nc1ccc(F)c(C(=O)c2c[nH]c3ncc(-c4ccc(Cl)cc4)cc23)c1F [Vemurafenib] + Cc1nc(NC(=O)N2CCC[C@H]2C(N)=O)sc1-c1ccnc(C(C)(C)C(F)(F)F)c1 [Alpelisib] (partner 2 µM)
Method in brief: as §1

OSI-027 + Foretinib = compound: COc1cccc2cc(-c3nc([C@H]4CC[C@H](C(=O)O)CC4)n4ncnc(N)c34)[nH]c12 [OSI-027] + COc1cc2c(Oc3ccc(NC(=O)C4(C(=O)Nc5ccc(F)cc5)CC4)cc3F)ccnc2cc1OCCCN1CCOCC1 [Foretinib] (partner 0.25 µM)
Method in brief: as §1

OSI-027 + Alpelisib = compound: COc1cccc2cc(-c3nc([C@H]4CC[C@H](C(=O)O)CC4)n4ncnc(N)c34)[nH]c12 [OSI-027] + Cc1nc(NC(=O)N2CCC[C@H]2C(N)=O)sc1-c1ccnc(C(C)(C)C(F)(F)F)c1 [Alpelisib] (partner 2 µM)
Method in brief: as §1

Cell Line: LU99A
- relative viability (Vemurafenib + Navitoclax; first compound 0.03162 µM): 0.714
- relative viability (Vemurafenib + Navitoclax; first compound 0.1 µM): 0.752
- relative viability (Vemurafenib + Navitoclax; first compound 0.3162 µM): 0.869
- relative viability (Vemurafenib + Navitoclax; first compound 1 µM): 0.796
- relative viability (Vemurafenib + Alpelisib; first compound 0.03162 µM): 0.518
- relative viability (Vemurafenib + Alpelisib; first compound 0.1 µM): 0.486
- relative viability (Vemurafenib + Alpelisib; first compound 0.3162 µM): 0.52
- relative viability (Vemurafenib + Alpelisib; first compound 1 µM): 0.423
- relative viability (OSI-027 + Foretinib; first compound 0.01 µM): 0.75
- relative viability (OSI-027 + Foretinib; first compound 0.03162 µM): 0.763
- relative viability (OSI-027 + Foretinib; first compound 0.1 µM): 0.685
- relative viability (OSI-027 + Foretinib; first compound 0.3162 µM): 0.517
- relative viability (OSI-027 + Foretinib; first compound 1 µM): 0.302
- relative viability (OSI-027 + Alpelisib; first compound 0.01 µM): 0.486
- relative viability (OSI-027 + Alpelisib; first compound 0.03162 µM): 0.455
- relative viability (OSI-027 + Alpelisib; first compound 0.1 µM): 0.312
- relative viability (OSI-027 + Alpelisib; first compound 0.3162 µM): 0.193
- relative viability (OSI-027 + Alpelisib; first compound 1 µM): 0.204

Cell Line: RERF-LC-KJ
- relative viability (Vemurafenib + Navitoclax; first compound 0.03162 µM): 1.05
- relative viability (Vemurafenib + Navitoclax; first compound 0.1 µM): 1.04
- relative viability (Vemurafenib + Navitoclax; first compound 0.3162 µM): 0.977
- relative viability (Vemurafenib + Navitoclax; first compound 1 µM): 1.29
- relative viability (Vemurafenib + Alpelisib; first compound 0.03162 µM): 0.583
- relative viability (Vemurafenib + Alpelisib; first compound 0.1 µM): 0.686
- relative viability (Vemurafenib + Alpelisib; first compound 0.3162 µM): 0.873
- relative viability (Vemurafenib + Alpelisib; first compound 1 µM): 0.771
- relative viability (OSI-027 + Foretinib; first compound 0.01 µM): 0.869
- relative viability (OSI-027 + Foretinib; first compound 0.03162 µM): 0.885
- relative viability (OSI-027 + Foretinib; first compound 0.1 µM): 0.919
- relative viability (OSI-027 + Foretinib; first compound 0.3162 µM): 0.622
- relative viability (OSI-027 + Foretinib; first compound 1 µM): 0.445
- relative viability (OSI-027 + Alpelisib; first compound 0.01 µM): 0.698
- relative viability (OSI-027 + Alpelisib; first compound 0.03162 µM): 0.793
- relative viability (OSI-027 + Alpelisib; first compound 0.1 µM): 0.641
- relative viability (OSI-027 + Alpelisib; first compound 0.3162 µM): 0.507
- relative viability (OSI-027 + Alpelisib; first compound 1 µM): 0.361

Cell Line: EBC-1
- relative viability (Vemurafenib + Navitoclax; first compound 0.03162 µM): 0.409
- relative viability (Vemurafenib + Navitoclax; first compound 0.1 µM): 0.408
- relative viability (Vemurafenib + Navitoclax; first compound 0.3162 µM): 0.453
- relative viability (Vemurafenib + Navitoclax; first compound 1 µM): 0.461
- relative viability (Vemurafenib + Alpelisib; first compound 0.03162 µM): 0.835
- relative viability (Vemurafenib + Alpelisib; first compound 0.1 µM): 0.833
- relative viability (Vemurafenib + Alpelisib; first compound 0.3162 µM): 0.805
- relative viability (Vemurafenib + Alpelisib; first compound 1 µM): 0.834
- relative viability (OSI-027 + Foretinib; first compound 0.01 µM): 0.112
- relative viability (OSI-027 + Foretinib; first compound 0.03162 µM): 0.104
- relative viability (OSI-027 + Foretinib; first compound 0.1 µM): 0.1
- relative viability (OSI-027 + Foretinib; first compound 0.3162 µM): 0.116
- relative viability (OSI-027 + Foretinib; first compound 1 µM): 0.124
- relative viability (OSI-027 + Alpelisib; first compound 0.01 µM): 0.79
- relative viability (OSI-027 + Alpelisib; first compound 0.03162 µM): 0.909
- relative viability (OSI-027 + Alpelisib; first compound 0.1 µM): 0.823
- relative viability (OSI-027 + Alpelisib; first compound 0.3162 µM): 0.478
- relative viability (OSI-027 + Alpelisib; first compound 1 µM): 0.343

Cell Line: NCI-H1944
- relative viability (Vemurafenib + Navitoclax; first compound 0.03162 µM): 1.06
- relative viability (Vemurafenib + Navitoclax; first compound 0.1 µM): 0.846
- relative viability (Vemurafenib + Navitoclax; first compound 0.3162 µM): 1.05
- relative viability (Vemurafenib + Navitoclax; first compound 1 µM): 1.04
- relative viability (Vemurafenib + Alpelisib; first compound 0.03162 µM): 0.811
- relative viability (Vemurafenib + Alpelisib; first compound 0.1 µM): 0.572
- relative viability (Vemurafenib + Alpelisib; first compound 0.3162 µM): 0.85
- relative viability (Vemurafenib + Alpelisib; first compound 1 µM): 0.837
- relative viability (OSI-027 + Foretinib; first compound 0.01 µM): 0.835
- relative viability (OSI-027 + Foretinib; first compound 0.03162 µM): 0.918
- relative viability (OSI-027 + Foretinib; first compound 0.1 µM): 0.884
- relative viability (OSI-027 + Foretinib; first compound 0.3162 µM): 0.73
- relative viability (OSI-027 + Foretinib; first compound 1 µM): 0.394
- relative viability (OSI-027 + Alpelisib; first compound 0.01 µM): 0.855
- relative viability (OSI-027 + Alpelisib; first compound 0.03162 µM): 0.796
- relative viability (OSI-027 + Alpelisib; first compound 0.1 µM): 0.764
- relative viability (OSI-027 + Alpelisib; first compound 0.3162 µM): 0.607
- relative viability (OSI-027 + Alpelisib; first compound 1 µM): 0.301

Cell Line: HARA
- relative viability (Vemurafenib + Navitoclax; first compound 0.03162 µM): 1.09
- relative viability (Vemurafenib + Navitoclax; first compound 0.3162 µM): 1.13
- relative viability (Vemurafenib + Navitoclax; first compound 1 µM): 1.14
- relative viability (Vemurafenib + Alpelisib; first compound 0.03162 µM): 0.801
- relative viability (Vemurafenib + Alpelisib; first compound 0.3162 µM): 0.879
- relative viability (Vemurafenib + Alpelisib; first compound 1 µM): 0.823
- relative viability (OSI-027 + Foretinib; first compound 0.01 µM): 0.91
- relative viability (OSI-027 + Foretinib; first compound 0.03162 µM): 0.92
- relative viability (OSI-027 + Foretinib; first compound 0.1 µM): 0.835
- relative viability (OSI-027 + Foretinib; first compound 0.3162 µM): 0.715
- relative viability (OSI-027 + Foretinib; first compound 1 µM): 0.322
- relative viability (OSI-027 + Alpelisib; first compound 0.01 µM): 0.81
- relative viability (OSI-027 + Alpelisib; first compound 0.03162 µM): 0.655
- relative viability (OSI-027 + Alpelisib; first compound 0.1 µM): 0.785
- relative viability (OSI-027 + Alpelisib; first compound 0.3162 µM): 0.495
- relative viability (OSI-027 + Alpelisib; first compound 1 µM): 0.291
